Measurements published in patent US20260116910A1, “POLYCYCLIC COMPOUNDS AND METHODS THEREOF” (HEPAITECH (BEIJING) BIOPHARMA TECHNOLOGY CO., LTD., priority 2021, published 2026).
“And” between values parts separate entries of the source, which are not always exact repeats. Equal entries are not always repeated.

Tests used:
human FXR (NR1H4) = target: T1, human FXR (NR1H4) (Homo sapiens, UniProt Q96RI1); assay: Human FXR (NR1H4) agonist assessment, FXRE-NanoLuc reporter in HEK293T cells; format: cell-based; details: FXR activation, HEK293T FXRE-NanoLuc reporter, 24 hr; for EC50: read-out: EC50
T1 sequence (Q96RI1 1-476 isoform Q96RI1-1): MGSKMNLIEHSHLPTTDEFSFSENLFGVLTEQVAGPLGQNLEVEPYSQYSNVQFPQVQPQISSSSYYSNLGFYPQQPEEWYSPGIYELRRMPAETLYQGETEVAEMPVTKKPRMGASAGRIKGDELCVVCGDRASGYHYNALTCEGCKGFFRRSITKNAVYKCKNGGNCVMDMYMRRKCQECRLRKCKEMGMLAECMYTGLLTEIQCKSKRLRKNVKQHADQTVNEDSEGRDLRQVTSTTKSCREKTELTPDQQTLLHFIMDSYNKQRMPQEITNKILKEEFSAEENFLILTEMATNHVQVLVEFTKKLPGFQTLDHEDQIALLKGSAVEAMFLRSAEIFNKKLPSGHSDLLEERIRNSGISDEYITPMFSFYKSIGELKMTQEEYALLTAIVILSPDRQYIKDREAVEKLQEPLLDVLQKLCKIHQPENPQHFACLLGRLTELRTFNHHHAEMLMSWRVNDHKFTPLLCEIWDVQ
Method: As those skilled in the art appreciate, various technologies are available for assessment of FXR activation in accordance with the present disclosure. […] Human FXR (NR1H4) agonist assessment (see, e.g., Yu et al. eLife 2019; 8: e48431): HEK293T cells stably expressing human FXR and containing FXR response element (FXRE)-NanoLuc reporter were cultured in DMEM medium supplemented with 10% FBS and 1% PS, at 37° C. in a humidified atmosphere with 5% CO2. Cells were detached by centrifuging (1000 rpm, 3 min). The pellet was re-suspended in medium, and cell density was adjusted to about 1×10^6 cells/mL. 100 μL suspension was seeded to each well of a white-walled, clear-bottom 96-well microplates (cell plate). Cells in microplates were cultured overnight.
In the following day, cells were grown to higher than 95% density in each well. Culture medium was replaced, and compounds were added to the wells. 0.01% DMSO (v/v) served as negative control. Plates were incubated at 37° C. in 5% CO2 for 24 hr.
In the following day, a 10 μL aliquot of cell culture medium was removed from each well and combined with 40 μL culture medium plus […] assay buffer (containing 20 mM of the luciferase substrate coelenterazine). After 5 min incubation, luminescence was measured using an EnVision plate reader (PerkinElmer).
In some embodiments, gradient diluted solutions of several concentrations were used to treat cells and corresponding responses were used to fit sigmoid function and to derive EC50 in Origin.

MRGPRX4 = MRGPRX4 (Homo sapiens, UniProt Q96LA9); assay: MRGPRX4 activation, Fluo-8 Ca2+ FLIPR assay in HEK293T cells stably expressing MRGPRX4; format: cell-based; details: for EC50: MRGPRX4 activation, Ca2+ fluorescence, no activation in tested range reported as III, read-out: Activity (EC50 μM)
Method: In some embodiments, cells were cultured in poly-D-Lys coated blacked walled, clear-bottom 96-well microplates. HEK293T cells stably expressing MRGPRX4 were cultured in DMEM medium supplemented with 10% FBS and 1% PS, at 37° C. in a humidified atmosphere with 5% CO2. Cells were detached by centrifuging (1000 rpm, 3 min). The pellet was re-suspended in medium, and cell density was adjusted to about 1×10^6 cells/mL. 100 μL suspension was seeded to each well of a microplates (cell plate). Cells in the microplates were cultured overnight. In the following day, cells were grown to higher than 95% density in each well.
Ca^2+ fluorescent dye loading: Fluo-8 AM (Screen Quest Fluo-8 AM Calcium Assay Kit, AAT Bioquest, cat. #: 21083) was diluted in HHBS buffer and adjusted to 2 μM (dye buffer). Medium in each well was changed into 50 μL dye buffer carefully. After incubation for 40-60 min under room temperature, the dye buffer was changed into 50 μL HHBS buffer.
The concentration of solution should be determined according to the protocol settings and experimental needs (e.g., Log[M]=−4, −5, −6, −7, −8, and −9). Prepare 2× serial dilution series of compounds (at least 75 μL per well).
A fluorescent signal baseline was measured using FLIPR®Tetra for 30 s. Then 50 μL of the chemical solution would be added to the cell plate. The fluorescent signal would be measured for another 150 s.
Activity of each compound was calculated by the fluorescence change (dF/F0). Curves were fitted to obtain EC50 values. In some embodiments, at least 3 repeats were performed to obtain the average values. For assessment of a compound, gradient diluted solutions of different concentrations were used to treat cells and corresponding responses were used to fit sigmoid function and to derive EC50 in Origin. In some embodiments, assessed concentrations were or included about 10^−4, 10^−4.5, 10^−5, 10^−5.5, 10^−6, 10^−6.5, 10^−7, 10^−8, and/or 10^−9 M; for example, in many instances, assessed concentrations included about 10^−5, 10^−6, 10^−7 and 10^−8 M. In some embodiments, assessed concentrations were about 10^−4, 10^−4.5, 10^−5, 10^−5.5, 10^−6, 10^−7, 10^−8, and 10^−9 M. In some embodiments, assessed concentrations were about 10^−4, 10^−5, 10^−6, 10^−7, 10^−8, and 10^−9 M. In some embodiments, assessed concentrations were about 10^−4, 10^−4.5, 10^−5, 10^−5.5, 10^−6, and 10^−7 M. In some embodiments, assessed concentrations were about 2000000, 1000000, 500000, 250000, 125000, 62500, 31250, 15625, 7813, 3906 nM. […] In some embodiments, assessed concentrations were about 30000, 10000, 3333, 1111, 370, 123, 41, 14, 4.6, 1.5 nM.

MRGPRX4, sequence (Q96LA9 whole entry): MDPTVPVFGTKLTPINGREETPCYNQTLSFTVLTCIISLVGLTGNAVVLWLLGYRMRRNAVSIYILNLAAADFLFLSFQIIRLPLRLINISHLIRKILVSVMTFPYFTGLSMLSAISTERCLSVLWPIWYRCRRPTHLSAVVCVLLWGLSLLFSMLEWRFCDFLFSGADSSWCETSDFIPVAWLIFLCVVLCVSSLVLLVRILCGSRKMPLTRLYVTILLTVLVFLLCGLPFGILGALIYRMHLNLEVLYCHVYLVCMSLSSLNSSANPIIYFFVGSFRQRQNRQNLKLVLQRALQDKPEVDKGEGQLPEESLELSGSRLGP

SMILES | Efficacy (maximum measured induction of NanoLuc, normalized to CDCA set as 100%) (human FXR (NR1H4)) | EC50 (human FXR (NR1H4)) | EC50 (MRGPRX4) | MRGPRX4 activation, fluorescence change (dF/F0), Average (MRGPRX4; Conc. (Log[M]) −5) | MRGPRX4 activation, fluorescence change (dF/F0), Average (MRGPRX4; Conc. (Log[M]) −4) | MRGPRX4 activation, fluorescence change (dF/F0), Average (MRGPRX4; Conc. (Log[M]) −4.5) | MRGPRX4 activation, fluorescence change (dF/F0), Average (MRGPRX4; Conc. (Log[M]) −5.5) | MRGPRX4 activation, fluorescence change (dF/F0), Average (MRGPRX4; Conc. (Log[M]) −6) | MRGPRX4 activation, fluorescence change (dF/F0), Average (MRGPRX4; Conc. (Log[M]) −7) | MRGPRX4 activation, fluorescence change (dF/F0), Average (MRGPRX4; Conc. (Log[M]) −8) | MRGPRX4 activation, fluorescence change (dF/F0), Average (MRGPRX4; Conc. (Log[M]) −9)
CC[C@H]1[C@@H](O)[C@@H]2[C@H](CC[C@]3(C)[C@@H]([C@H](C)CCC(=O)O)CC[C@@H]23)[C@@]2(C)CC[C@H](F)C[C@@H]12 [1-1] | C (100%<efficacy <=300%) | 1 to 10 µM | > 100 µM | – | – | – | – | – | – | – | –
CO/N=C1\C[C@@H]2C[C@H](OC(C)=O)CC[C@]2(C)[C@H]2CC[C@]3(C)[C@@H]([C@H](C)CCC(=O)OC)CC[C@H]3[C@H]12 [1-2] | D (efficacy <=100%) | > 10 µM | 50 to 100 µM | 0.027 and 0.022 | – | – | – | – | – | – | –
COC(=O)CC[C@@H](C)[C@H]1CC[C@H]2[C@@H]3/C(=N\OC(C)(C)C(=O)O)C[C@@H]4C[C@H](OC(C)=O)CC[C@]4(C)[C@H]3CC[C@]12C [1-3] | C (100%<efficacy <=300%) | > 10 µM | < 50 µM | 0.047 | 0.109 | 0.114 | −0.026 | −0.008 | 0.018 | −0.003 | 0.008
CC[C@H]1[C@@H](O)[C@@H]2[C@H](CC[C@]3(C)[C@@H]([C@H](C)CCC(=O)OC)CC[C@@H]23)[C@@]2(C)CCCC[C@@H]12 [1-4] | C (100%<efficacy <=300%) | 1 to 10 µM | > 100 µM | −0.014 | 0.098 | 0.004 | −0.004 | −0.011 | −0.006 | −0.009 | −0.020
CC[C@H]1[C@@H](OC(=O)c2cccc(I)c2)[C@@H]2[C@H](CC[C@]3(C)[C@@H]([C@H](C)CCC(=O)OC)CC[C@@H]23)[C@@]2(C)CCCC[C@@H]12 [1-5] | D (efficacy <=100%) | > 10 µM | 50 to 100 µM | −0.045 | 0.035 | −0.027 | −0.034 | −0.041 | −0.027 | −0.049 | −0.084
CC[C@H]1[C@@H](OC(=O)c2cccc(I)c2)[C@@H]2[C@H](CC[C@@]3(C)[C@H]2CC[C@]3(Cl)[C@H](C)CCC(=O)OC)[C@@]2(C)CCCC[C@@H]12 [1-6] | D (efficacy <=100%) | > 10 µM | > 100 µM | −0.001 | 0.018 | −0.031 | −0.012 | −0.006 | −0.001 | 0.001 | −0.014
C[C@H](CC/C=C/C(=O)O)[C@H]1CC[C@H]2[C@@H]3CC[C@@H]4C[C@H](O)CC[C@]4(C)[C@H]3CC[C@]12C [1-7] | C (100%<efficacy <=300%) | 1 to 10 µM | < 50 µM | −0.048 | 0.083 | 0.011 | −0.037 | −0.044 | −0.045 | −0.040 | −0.034
CC(C[C@@H](C)[C@H]1CC[C@H]2[C@@H]3CC[C@@H]4CCCC[C@]4(C)[C@H]3CC[C@]12C)C(=O)O (some centres unmarked) [2-1] | C (100%<efficacy <=300%) | > 10 µM | > 100 µM | −0.045 | 0.071 | −0.014 | −0.072 | −0.095 | −0.110 | −0.072 | −0.091
CC(O)CC[C@@H](C)[C@H]1CC[C@H]2[C@@H]3CC[C@@H]4CCCC[C@]4(C)[C@H]3CC[C@]12C (some centres unmarked) [2-2] | C (100%<efficacy <=300%) | > 10 µM | > 100 µM | – | – | – | – | – | – | – | –
C[C@H](CCCCNC(=O)NS(=O)(=O)c1ccc(C(C)(C)CF)cc1)[C@H]1CC[C@H]2[C@@H]3CC[C@@H]4CCCC[C@]4(C)[C@H]3CC[C@]12C [24-1] | B (300%<efficacy <=400%) | 1 to 10 µM | – | – | – | – | – | – | – | – | –
C[C@H](CCC(=O)O)[C@H]1CC[C@H]2[C@@H]3CC[C@@H]4C[C@H](O)CC[C@]4(C)[C@H]3C[C@@H](O)[C@]12C [RC-4] | A (efficacy >400%) | < 1 µM | – | – | – | – | – | – | – | – | –
